From patent US20080221134A1, “8-ALKYNYLXANTHINES AND DERIVATIVES” (priority 2006, published 2008) come the findings set out here.

For one test, the system named is rats. Kind of test: Modified Irwin test (FOB, SAC, FU). It is filed as in vivo, rat. The following applies: 0.01-30 mg/kg. The text has this:
In this study the compounds of the present invention were screened for basal behavioural, autonomic, neurological and toxicological side-effects in rats. For this purpose, a functional observational battery (FOB) in form of an Irwin test (Irwin S., Psychopharmacologia, 1968, 13, 222; 1968; Warburton D. M. Psychopharmacology, 2002, 163, 4; Haggerty G. C. et al., J. Amer. Coll. Toxicol., 1991, 10, 677; Mattsson J. L. et al., J. Amer. Coll. Toxicol., 1996, 15, 239, all references are herein incorporated by reference) modified and validated by the Test Facility was used. Each test compound was tested at eight doses (0.01, 0.03, 0.1, 0.3, 1.0, 3.0, 10.0 and 30.0 mg/kg). All compounds were dissolved in DMSO (administration volume 1 ml/kg). Each dose group included three animals. Two vehicle groups (DMSO and Labrasol) served as negative controls.
At the first day of each test week all test compound solutions necessary for the test (1-2 weeks) were prepared by means of one dilution series starting with the highest concentration. All test compounds dissolved in DMSO were administered in a volume of 1 ml/kg. DMSO-containing solutions were stored at −18° C. All solutions were melted for administration at room temperature 16-20 hours before the start of the test.
Study design and time schedule:
4-7 days: Acclimatization and handling of the animals 1 day: Test day with • (a) Four repeated functional observational battery (FOB): 30 min, 60 min, 120 min, 180 min following compound administration • (b) Short animal check (SAC): 300 min following compound administration 1 day: Follow-up observation (FU): • 24 h (1440 min) following compound administration.
In all experimental parts, an experienced ethologist used lists of predefined methods and behavioural parameters in order to rate the behaviour of the animal (see table 7 for functional observational battery (FOB), table 8 for short animal check (SAC) and table 9 for follow-up observation (FU).
A statistical evaluation of the data was performed that enabled an assessment of the compound's effects on each parameter. Dose-response relationships are not necessarily linear. It was not clear a priori whether the response would be dose-dependent or whether low, medium or high dose effects would occur. Therefore, the data were correlated against a set of different numeric models of theoretical dose-response curves. For this kind of evaluation the measurement times were not differentiated. An average value over all measurement times was calculated for each animal. This value was taken as one measurement within the observation vector. The complete set of parameters measured for the animal (each one averaged over time) formed the observation vector. Each dose was then represented by three observation vectors (3 animals per dose). The effects of all doses were compared with vehicle (DMSO) as the observation vectors for the zero dose. A common pool of 24 animals for the zero dose was used for all compounds to be tested. For each test compound the obtained values for each parameter together with values from the pool of vehicle-treated (DMSO) animals were then correlated with theoretical dose-response models (analysis profiles). Since 8 doses were be used, there were 8 models, each assuming that the maximum compound effect occurred at one of these doses. Effects of other doses were assumed to be attenuated with a linearly descending slope of the theoretical curve. Correlation values and statistical significance of regression were then calculated. An error probability of p<0.05 (two-tailed testing) was taken as significance level. Non-significant regressions were neglected. In consequence, each parameter was assessed as not affected or affected by the compound in a dose-response relationship according to type 1 (low dose effect) up to type 8 (high dose effect). Dose response is maximal for the effect with the greatest absolute correlation coefficient. […]

Test [1] has as its system haloperidol induced model of Parkinson's Disease. The test can be described thus: Haloperidol induced model of Parkinson's Disease. The following applies: in vivo.

Entries after “also recorded” stand apart in the source; their conditions may differ.

Turning to `C#CCn1c(=O)c2c(nc(C#Cc3ccc(OC)c(OC)c3)n2C)n(CC)c1=O` [test compound 1, 3-ethyl-8-(3,4-dimethoxyphenylethynyl)-7-methyl-1-prop-2-ynyl-3,7-dihydropurine-2,6-dione], the “activity in the Irwin Test (hyperlocomotion)” value in the test on rats is on record as “potent hyperlocomotion”. Also, the “effect in haloperidol induced model of Parkinson's Disease” value in test [1] was “effective; also recorded: significant effects”. As to `C#CCn1c(=O)c2c(nc(C#Cc3ccc(OC)c(OC)c3)n2C)n(CCCO)c1=O` [test compound 2, 3-(3-hydroxypropyl)-8-(3,4-dimethoxyphenylethynyl)-7-methyl-1-prop-2-ynyl-3,7-dihydropurine-2,6-dione], the “activity in the Irwin Test (hyperlocomotion)” value in the test with rats is “potent hyperlocomotion”.
